Test results reported in US5427766A, “Radiolabeled steroids for use in radiochemical-guided surgery” (priority 1993, dated 1995).

Assay: physchem
Type: physicochemical
Conditions: solid state
Experimental: (Z)-Stannyl olefin 4 (25 mg, 41 μmol) was added to 1 mL of chloroform and iodine (10.9 mg, […]) was added with stirring. Rapid decoloration took place and an additional amount of iodine (1 mg) was added which imparted a pink color. Several drops of methanolic potassium fluoride was added which precipitated a tin complex. To the slurry was added 0.5 mL of saturated […] and the organic phase was separated, dried over sodium sulfate and evaporated to give an oil. This material was chromatographed using 2 percent methanol in chloroform on a 1 cm×10 cm flash gel column to give (Z)-iodo olefin 5 (15.3 mg) in 84 percent yield as a white solid.

## CC[C@H]1C[C@@]2(C)[C@@H](CC[C@@]2(O)/C=C\I)[C@@H]2CCc3cc(O)ccc3[C@@H]12 [(Z)-iodo olefin 5, 11β-Ethyl-17α-(Z)-(iodovinyl)estra-3,17β-diol]
A week at 25° C., HPLC 254 nm
  protodestannylation in product: 3.4 area percent
  suspect (E)-iodo: 10.9 area percent
  remaining at 168 h: 74%
